Data as given in PubChem BioAssay (NCI).
Values after ≈ are worked out from the molar mass of the structure shown.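 Five concentrations, 48 hours, 96-well plates. Abbreviation: GI50, concentration required for 50% inhibition of growth. TGI: total growth inhibition.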 Peptide text beside a SMILES is read from it.

Tests used:
Assay in all cases: growth of human tumour cells (NCI), 48 h
KM12 colon = tested on: KM12 colon
HS 578T breast = tested on: HS 578T breast
MOLT-4 leukemia = tested on: MOLT-4 leukemia
UACC-62 melanoma = tested on: UACC-62 melanoma
CCRF-CEM leukemia = tested on: CCRF-CEM leukemia
786-0 renal = tested on: 786-0 renal
PC-3 prostate = tested on: PC-3 prostate
SNB-19 CNS = tested on: SNB-19 CNS
OVCAR-8 ovarian = tested on: OVCAR-8 ovarian
NCI-H226 lung = tested on: NCI-H226 lung
OVCAR-3 ovarian = tested on: OVCAR-3 ovarian
K-562 leukemia = tested on: K-562 leukemia
NCI-H460 lung = tested on: NCI-H460 lung
CAKI-1 renal = tested on: CAKI-1 renal
SK-MEL-2 melanoma = tested on: SK-MEL-2 melanoma
UACC-257 melanoma = tested on: UACC-257 melanoma
RXF 393 renal = tested on: RXF 393 renal
M14 melanoma = tested on: M14 melanoma
NCI-H23 lung = tested on: NCI-H23 lung
HCT-15 colon = tested on: HCT-15 colon
HL-60(TB) leukemia = tested on: HL-60(TB) leukemia
SF-539 CNS = tested on: SF-539 CNS
ACHN renal = tested on: ACHN renal
SN12C renal = tested on: SN12C renal
COLO 205 colon = tested on: COLO 205 colon
RPMI-8226 leukemia = tested on: RPMI-8226 leukemia
NCI-H522 lung = tested on: NCI-H522 lung
SR leukemia = tested on: SR leukemia
DU-145 prostate = tested on: DU-145 prostate
OVCAR-4 ovarian = tested on: OVCAR-4 ovarian
TK-10 renal = tested on: TK-10 renal
SK-MEL-28 melanoma = tested on: SK-MEL-28 melanoma
U251 CNS = tested on: U251 CNS
A549 NSCLC = tested on: A549 NSCLC
MDA-MB-231 breast = tested on: MDA-MB-231 breast
HT29 colon = tested on: HT29 colon
UO-31 renal = tested on: UO-31 renal
HCC-2998 colon = tested on: HCC-2998 colon
EKVX NSCLC = tested on: EKVX NSCLC
SF-268 CNS = tested on: SF-268 CNS
SK-OV-3 ovarian = tested on: SK-OV-3 ovarian
OVCAR-5 ovarian = tested on: OVCAR-5 ovarian
NCI/ADR-RES ovarian = tested on: NCI/ADR-RES ovarian
SF-295 CNS = tested on: SF-295 CNS
HOP-92 NSCLC = tested on: HOP-92 NSCLC
T-47D breast = tested on: T-47D breast
SK-MEL-5 melanoma = tested on: SK-MEL-5 melanoma
MDA-MB-435 = tested on: MDA-MB-435
LOX IMVI melanoma = tested on: LOX IMVI melanoma
HOP-62 NSCLC = tested on: HOP-62 NSCLC

SMILES: CCOC(=O)CNC(=O)C(Cc1ccccc1)NC(=O)C(N)CC(=O)O (stereo not drawn) (H-Asp-Phe-Gly-OEt; configuration not given here)
- GI50 (KM12 colon): 0.194 µg/mL
- GI50 (HS 578T breast): 9.31 µg/mL (≈ 25.5 µM)
- GI50 (MOLT-4 leukemia): 23.7 µg/mL
- GI50 (UACC-62 melanoma): 30.3 µg/mL
- GI50 (CCRF-CEM leukemia): 85.2 µg/mL (≈ 233 µM)

SMILES: S=c1ssc(N2CCOCC2)c1Cl
- GI50 (786-0 renal): > 100 µM
- TGI (786-0 renal): > 100 µM
- GI50 (PC-3 prostate): 40.2 µM
- TGI (PC-3 prostate): > 100 µM
- GI50 (KM12 colon): 31 µM
- TGI (KM12 colon): > 100 µM
- GI50 (SNB-19 CNS): > 100 µM
- TGI (SNB-19 CNS): > 100 µM
- GI50 (OVCAR-8 ovarian): > 100 µM
- TGI (OVCAR-8 ovarian): > 100 µM
- GI50 (NCI-H226 lung): > 100 µM
- TGI (NCI-H226 lung): > 100 µM
- GI50 (OVCAR-3 ovarian): 39.3 µM
- TGI (OVCAR-3 ovarian): > 100 µM
- GI50 (K-562 leukemia): 26.3 µM
- TGI (K-562 leukemia): > 100 µM
- GI50 (NCI-H460 lung): 21.5 µM
- TGI (NCI-H460 lung): 67 µM
- GI50 (CAKI-1 renal): > 100 µM
- TGI (CAKI-1 renal): > 100 µM
- GI50 (SK-MEL-2 melanoma): > 100 µM
- TGI (SK-MEL-2 melanoma): > 100 µM
- GI50 (UACC-257 melanoma): > 100 µM
- TGI (UACC-257 melanoma): > 100 µM
- GI50 (RXF 393 renal): 36 µM
- TGI (RXF 393 renal): > 100 µM
- GI50 (M14 melanoma): > 100 µM
- TGI (M14 melanoma): > 100 µM
- GI50 (NCI-H23 lung): 29.1 µM
- TGI (NCI-H23 lung): > 100 µM
- GI50 (HCT-15 colon): 23.6 µM
- TGI (HCT-15 colon): > 100 µM
- GI50 (HL-60(TB) leukemia): 24.4 µM
- TGI (HL-60(TB) leukemia): 63.3 µM
- GI50 (SF-539 CNS): 31.4 µM
- TGI (SF-539 CNS): 76.3 µM
- GI50 (ACHN renal): 78.5 µM
- TGI (ACHN renal): > 100 µM
- GI50 (MOLT-4 leukemia): 31.8 µM
- TGI (MOLT-4 leukemia): > 100 µM
- GI50 (SN12C renal): 72.7 µM
- TGI (SN12C renal): > 100 µM
- GI50 (UACC-62 melanoma): 26.5 µM
- TGI (UACC-62 melanoma): > 100 µM
- GI50 (COLO 205 colon): > 100 µM
- TGI (COLO 205 colon): > 100 µM
- GI50 (RPMI-8226 leukemia): 23.3 µM
- TGI (RPMI-8226 leukemia): 69.2 µM
- GI50 (NCI-H522 lung): 20.4 µM
- TGI (NCI-H522 lung): 55.4 µM
- GI50 (SR leukemia): 13.3 µM
- TGI (SR leukemia): 65.9 µM
- GI50 (DU-145 prostate): 20.3 µM
- TGI (DU-145 prostate): 56.5 µM
- GI50 (OVCAR-4 ovarian): > 100 µM
- TGI (OVCAR-4 ovarian): > 100 µM
- GI50 (TK-10 renal): 16 µM
- TGI (TK-10 renal): > 100 µM
- GI50 (SK-MEL-28 melanoma): 38.2 µM
- TGI (SK-MEL-28 melanoma): 57.9 µM
- GI50 (U251 CNS): 15 µM
- TGI (U251 CNS): 28.3 µM
- GI50 (A549 NSCLC): > 100 µM
- TGI (A549 NSCLC): > 100 µM
- GI50 (MDA-MB-231 breast): 26.6 µM
- TGI (MDA-MB-231 breast): > 100 µM
- GI50 (HT29 colon): 47.4 µM
- TGI (HT29 colon): > 100 µM
- GI50 (UO-31 renal): > 100 µM
- TGI (UO-31 renal): > 100 µM
- GI50 (HCC-2998 colon): 30.6 µM
- TGI (HCC-2998 colon): > 100 µM
- GI50 (EKVX NSCLC): 58 µM
- TGI (EKVX NSCLC): > 100 µM
- GI50 (SF-268 CNS): 23.3 µM
- TGI (SF-268 CNS): 71 µM
- GI50 (SK-OV-3 ovarian): 28.1 µM
- TGI (SK-OV-3 ovarian): > 100 µM
- GI50 (OVCAR-5 ovarian): > 100 µM
- TGI (OVCAR-5 ovarian): > 100 µM
- GI50 (NCI/ADR-RES ovarian): 43.9 µM
- TGI (NCI/ADR-RES ovarian): > 100 µM
- GI50 (SF-295 CNS): 25.8 µM
- TGI (SF-295 CNS): > 100 µM
- GI50 (HOP-92 NSCLC): 78.3 µM
- TGI (HOP-92 NSCLC): > 100 µM
- GI50 (T-47D breast): > 100 µM
- TGI (T-47D breast): > 100 µM
- GI50 (SK-MEL-5 melanoma): 16.5 µM
- TGI (SK-MEL-5 melanoma): 30 µM
- GI50 (MDA-MB-435): 25 µM
- TGI (MDA-MB-435): 73.7 µM
- GI50 (LOX IMVI melanoma): 17.7 µM
- TGI (LOX IMVI melanoma): 37.8 µM
- GI50 (HOP-62 NSCLC): > 100 µM
- TGI (HOP-62 NSCLC): > 100 µM
